This is an account of results in patent US4247542A, “A-40104 Antibiotics and process for production thereof” (priority 1978, dated 1981).

In brackets after ≈: the same amount, converted by molar mass.

The subject of series [1] is Spiroplasma citri. Description: in vitro test against Spiroplasma citri. The conditions noted are these: levels as low as, read-out: level inhibiting S. citri. The series is classed as cell-based. The text has this: Another important aspect of this invention is the activity of the A-40104 antibiotics against Spiroplasmas. Spiroplasma citri is the causative agent of citrus-stubborn disease; another Spiroplasma, corn-stunt Spiroplasma, affects the growth of corn. In in vitro tests against Spiroplasma citri A-40104 factor A and its dihydro derivative inhbit S. citri when applied at levels as low as 0.01 ppm.

In series [2] the test system is Pasteurella multocida (turkey). Description: standard in vitro test against Pasteurella. The series is classed as cell-based. The text has this:
Another veterinary aspect of this invention is the activity of the A-40104 antibiotics against Pasteurella species. P. multocida, for example, is a causative agent of respiratory infection in cattle, poultry, and swine. P. hemolytica is a major cause of respiratory disease in cattle. The activity of A-40104 factor A and its dihydro derivative against Pasteurella, as determined by standard in vitro tests, is summarized in Table X.

Series [3] in a line: solubility.
The test system of series [4] is Mycoplasma synoviae. Description: in vitro broth-dilution MIC, mycoplasma. In kind it is cell-based. The source says: (§1) The minimal inhibitory concentrations (MIC's) of A-40104 factor A; 19,20-dihydro-A-40104 factor A; and the tetraacetyl derivative of A-40104A against various mycoplasma species, as determined by in vitro broth-dilution studies, are summarized in Table IX.

Series [5] deals with Mycoplasma gallisepticum. Description: in vitro broth-dilution MIC, mycoplasma. The series is classed as cell-based.
Excerpt: as §1

In series [6] the test system is powdery mildew. Description: control of powdery mildew on bean plants. To be noted: soil drench at 100 ppm. The series is classed as in vivo. The source says: (§2) The A-40104 antibiotics are also active against plant pathogens. […] The systemic activity of these antibiotics is especially advantageous in the control of plant pathogens or Spiroplasmas.
For series [7], the system named is powdery mildew. Description: control of powdery mildew on barley plants. In kind it is in vivo. The conditions noted are these: soil drench at 100 ppm.
Excerpt: as §2

Series [8] concerns Eubacterium aerofaciens. Description: standard agar-dilution test, anaerobic bacteria. The series is classed as cell-based. The conditions noted are these: Collinsella aerofaciens, read after 24 hours. The text has this: Table VIII summarizes the activity of A-40104 factor A, as determined by the standard agar-dilution test.
*MIC determined by the agardilution method. Endpoints were read after 24

Series [9] relates to swine dysentery. The conditions noted are these: W. E. Brown et al. U.S. Pat. No. 4,041,175; cited from earlier work.

Consider `CCC1(C)CC(OC(=O)CO[C@@H]2OC[C@@H](O)[C@H](O)[C@H]2O)C2(C)C(C)CCC3(CCC(=O)C32)C(C)C1O` (stereo partly shown) [19,20-dihydro-A-40104 factor A, 19,20-Dihydro-A-40104 Factor A], for which the MIC was no more than 0.01 µg/mL in series [1] and 12.5 µg/mL (≈ 24.4 µM) in series [2].

Consider `C=CC1(C)CC(OC(=O)CO[C@@H]2OC[C@@H](O)[C@H](O)[C@H]2O)C2(C)C(C)CCC3(CCC(=O)C32)C(C)C1O` (stereo partly drawn) [A-40104 factor A, β,D-xylopyranosyl acetal derivative of pleuromutilin], for which, in series [3] (chloroform), the solubility in chloroform entry is “partially soluble”. Also, the solubility in alcohols entry in [3] (ethanol) and in series [3] (methanol) was “soluble” each time. In series [3] (water), the solubility in water result is reported as “insoluble”. In addition, the MIC is less than 0.78 µg/mL in [4], less than 0.78 µg/mL in series [5], 12.5 µg/mL (≈ 24.5 µM) in [2] and 16 µg/mL (≈ 31.3 µM) in series [8]. For the same compound, the “control of powdery mildew” value in series [6] and in [7] was “control of powdery mildew is obtained” each time.

On to `C=C[C@]1(C)C[C@@H](OC(=O)CO)[C@]2(C)[C@H](C)CC[C@]3(CCC(=O)[C@H]32)[C@@H](C)[C@@H]1O` [A-40104 factor C, pleuromutilin], for which the “effect in swine dysentery” value in series [9] is on record as “effective in the treatment of swine dysentery”.
